Measurements from BindingDB's records for doi:10.1002/cbic.201600673 (Université de Nantes, 2017).

Tests used:
Assay in all cases: Fluorescence Polarization Assay
Galectin-1 [C3S] = Galectin-1 [C3S] (Human, UniProt P09382, C3S)
Galectin-3 = Galectin-3 (Homo sapiens, UniProt P17931)
Galectin-7 = Galectin-7 (Homo sapiens, UniProt P47929)
Galectin-7, sequence (P47929 whole entry): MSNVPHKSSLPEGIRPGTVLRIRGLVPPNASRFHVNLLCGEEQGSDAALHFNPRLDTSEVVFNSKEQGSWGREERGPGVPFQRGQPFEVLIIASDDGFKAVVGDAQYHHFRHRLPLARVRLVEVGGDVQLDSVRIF

Galectin-3, sequence (P17931 whole entry): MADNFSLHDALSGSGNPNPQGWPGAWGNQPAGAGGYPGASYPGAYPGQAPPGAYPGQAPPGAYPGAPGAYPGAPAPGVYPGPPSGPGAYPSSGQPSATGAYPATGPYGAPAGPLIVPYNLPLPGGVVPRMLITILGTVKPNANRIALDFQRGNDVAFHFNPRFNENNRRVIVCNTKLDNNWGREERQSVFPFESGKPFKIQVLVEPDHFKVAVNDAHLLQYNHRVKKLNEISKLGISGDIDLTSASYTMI
Galectin-1 [C3S], sequence (P09382 2-135 C3S limits assumed): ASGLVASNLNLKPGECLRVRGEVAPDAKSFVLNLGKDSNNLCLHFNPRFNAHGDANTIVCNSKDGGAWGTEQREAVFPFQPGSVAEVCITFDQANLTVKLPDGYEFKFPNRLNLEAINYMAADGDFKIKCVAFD

Kd (Galectin-1 [C3S]; 4 °C) [µM]	Kd (Galectin-1 [C3S]; 25 °C) [µM]	Kd (Galectin-3; 4 °C) [µM]	Kd (Galectin-3; 25 °C) [µM]	Kd (Galectin-7; 4 °C) [µM]	Kd (Galectin-7; 25 °C) [µM]	SMILES
16	43	0.014	0.082	21	129	COc1cccc(C(=O)NC2C(O)[C@H](O[C@@H]3OC(CO)[C@H](O)C(OCc4ccc5ccccc5c4)C3O)C(CO)O[C@H]2OCCNC(=O)CCCCCN2C(=O)C=CC2=O)c1 (stereo partly drawn) [2-[6-Maleimide)caproyl]ethyl [3-O-(2-naphthyl)methyl-β-D-galactopyranosyl]-(1-4)-2-deoxy-2-(3-methoxybenzamido)-β-D-glucopyranoside (13)]
23		0.66	3.27	86		COc1cccc(COC2C(O)[C@H](O[C@@H]3C(CO)O[C@@H](N=[N+]=[N-])C(NC(=O)c4cccc(OC)c4)C3O)OC(CO)[C@@H]2O)c1 (stereo partly drawn) [4-O-[3-O-(3-methoxybenzyl)-β-D-galactopyranosyl)]-1-azido-1,2-dideoxy-2-(3-methoxybenzamido)-β-D-glucopyranose (1)]
				32		OCC1O[C@@H](S[C@@H]2OC(CO)[C@H](O)C(n3cc(-c4cccc(F)c4)nn3)C2O)C(O)C(n2cc(-c3cccc(F)c3)nn2)[C@H]1O (stereo not given in full) [TD139]
27		0.59	2.99	90		COc1cccc(C(=O)CC2C(O)[C@H](O[C@@H]3OC(CO)[C@H](O)C(OCc4ccc5ccccc5c4)C3O)C(CO)O[C@H]2OCCN=[N+]=[N-])c1 (stereo partly drawn) [[3-O-(2-naphthyl)methyl-β-D-galactopyranosyl]-(1-4)-2-deoxy-2-(3-methoxybenzamido)-β-D-glucopyranoside (11)]
